Measured values as given in publication PMC6335420, “The cell cycle regulator GpsB functions as cytosolic adaptor for multiple cell wall enzymes” (Nature Communications, 2019).
Read-outs that look alike come from different tables or passages of the source. Residues, ends and D or L forms follow the SMILES beside them. *: point of attachment. Fluorescein(5-Mal) = O=C1OC2(c3ccc(O)cc3Oc3cc(O)ccc32)c2ccc(N3C(=O)CC(*)C3=O)cc21; X1 = CN(C)c1ccc2c(-c3ccc(N4C(=O)CC(*)C4=O)cc3C(=O)[O-])c3ccc(=[N+](C)C)cc-3oc2c1

How the values were obtained:
SpGpsB1-63 = biological target: T1, SpGpsB1-63 (Streptococcus pneumoniae, UniProt Q8DR57); assay: Fluorescence polarisation binding to SpGpsB1-63; settings: FP
T1 construct: The SpGpsB1-63 expression construct (pET28SpGpsB1-63) was prepared by PCR amplification of gpsB; His6 (N, cleaved yes); made in house; host or cells: E. coli BL21(DE3)
Description: (§1) 75 the BsGpsB5-64:BsPBP11-17 complex.

SpGpsB1-63Asp33Ala = biological target: T2, SpGpsB1-63Asp33Ala (Streptococcus pneumoniae, UniProt Q8DR57, D33A); assay: Fluorescence polarisation binding to SpGpsB1-63Asp33Ala; settings: FP, SpGpsB1-63Asp33Ala relative to wild-type SpGpsB1-63
T2 construct: His6 (N, cleaved yes); made in house; host or cells: E. coli BL21(DE3)
Description: as §1

GpsB = assay: Displacement of pre-bound PBP peptides from GpsB; assay type: binding; settings: 100-fold molar excess of free L-arginine
BsGpsB1-68 [1] = biological target: T3, BsGpsB1-68 (Bacillus subtilis, UniProt P0CI74); assay type: binding; settings: FP
T3 construct: His6 (N, cleaved yes); made in house; host or cells: E. coli BL21(DE3)
Description: as §1

BsGpsB1-68 [2] = biological target: T3, BsGpsB1-68; settings: FP, compared with residue-16-labelled peptide; ref 3 (supplement); cited from earlier work
[3] = Peptidoglycan pulldown assay; assay type: binding, Bacillus subtilis; settings: 25 µg protein + 66 µg PG in 100 µL PBS, room temperature 30 min, SDS-PAGE
Method: PG pulldown assays were carried out in PBS buffer. B. subtilis PG (SigmaAldrich) was prepared as a 10 mg^−1 mL^−1 stock solution in PBS containing 0.02% sodium azide. 25 µg of protein were added to a 100 µL sample containing 66 µg of PG and the mixture incubated with gentle agitation at room temperature for 30 min. The mixture was centrifuged at 16,000 × g for 7 min, the supernatant removed and the pellet resuspended in 1 mL of ice-cold PBS and immediately centrifuged for 2 min at 16,000 × g. The pellet was resuspended in 1 mL of the appropriate buffer and centrifuged for 2 min at 16,000 × g. Finally the pellet was boiled for 3 min in 60 μL SDS-PAGE loading buffer before analysis by SDS-PAGE; the SDS-PAGE loading buffer lacked reducing agents for YpbE130-240^Ser132Cys samples.

BsYrrS = assay: BACTH interaction with BsYrrS; assay type: cell-based, Bacillus subtilis; settings: E. coli BTH101, nutrient agar, 30 °C
SpGpsB = assay: BACTH interaction with SpGpsB; assay type: cell-based, Streptococcus pneumoniae; settings: E. coli BTH101, 30 °C, 36-40 h
Description: The target genes were amplified by the PCR from S. pneumoniae D39 chromosomal DNA. PCR fragments for pbp2a, mreC, pbp1a, pbp2x and pbp2b were purified, digested with appropriate restriction enzymes and cloned into the corresponding sites of the pKT25/pUT18C vectors to generate plasmids encoding the corresponding hybrid proteins fused at the C-terminal ends of the T25 and T18 fragments, respectively. Plasmids pKNT25-gpsB/pUT18-gpsB, pKNT25-stkP/pUT18-stkP and pKNT25-ezrA/pUT18-ezrA were already constructed. The mutated and truncated gpsB and pbp2a alleles were amplified from their respective DNA templates and the corresponding PCR products cloned into the corresponding sites of the BACTH vectors as described above for the wild-type alleles. E. coli DH5α transformants were selected on LB agar plates containing ampicillin (100 μg^−1mL^−1) or kanamycin (50 μg^−1mL^−1) and 0.4% glucose to repress leaky expression.
BACTH experiments, each pair of plasmids was co-transformed into the E. coli cya- strain BTH101 and co-transformation mixtures were spotted onto LB agar plates supplemented with ampicillin ([…]), kanamycin ([…]) and X-Gal (40 μg^−1mL^−1), followed by incubation at 30 °C. Plates were inspected and photographed after 24 and 40 h. Plasmid pairs pKNT25/pUT18 and pKT25-zip/pUT18C-zip were used as negative and positive controls, respectively. […]

T3 sequence (P0CI74 1-68): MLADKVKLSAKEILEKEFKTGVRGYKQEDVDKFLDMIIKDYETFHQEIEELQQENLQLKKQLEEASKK
T1 sequence (Q8DR57 1-63): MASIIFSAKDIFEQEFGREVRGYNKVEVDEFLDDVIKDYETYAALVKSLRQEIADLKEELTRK
T2 sequence (Q8DR57 1-63 D33A): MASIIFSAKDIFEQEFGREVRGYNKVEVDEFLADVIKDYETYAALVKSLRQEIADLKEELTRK

Molecule: CC[C@H](C)[C@H](NC(=O)[C@@H]1CCCN1C(=O)[C@H](CSC1CC(=O)N(c2ccc(-c3c4ccc(=[N+](C)C)cc-4oc4cc(N(C)C)ccc34)c(C(=O)[O-])c2)C1=O)NC(=O)[C@@H](NC(=O)[C@H](CCC(N)=O)NC(=O)[C@H](C)NC(=O)[C@H](CC(C)C)NC(=O)[C@H](CCCCN)NC(=O)[C@H](CCCCN)NC(=O)[C@H](CCCNC(=N)N)NC(=O)[C@H](CC(=O)O)NC(=O)[C@H](CO)NC(=O)[C@H](CCCNC(=N)N)NC(=O)[C@H](CO)NC(=O)[C@H](CCCNC(=N)N)NC(=O)[C@H](CCCNC(=N)N)NC(=O)[C@H](CC(C)C)NC(=O)[C@@H](NC(=O)[C@@H](NC(=O)[C@H](CO)NC(=O)[C@H](CC(=O)O)NC(=O)[C@H](CO)NC(=O)[C@H](CC(=O)O)NC(=O)[C@H](CCSC)NC(=O)[C@H](CO)NC(=O)CN)[C@@H](C)O)[C@@H](C)CC)C(C)C)C(=O)O (stereo partly drawn) [TAMRA-SpPBP2a23-45] (H-GSMDSDSTILRRSRSDRKKLAQVC(X1)PI-OH)
- binding to SpGpsB1-63 (in words) (SpGpsB1-63): interacts
- reduction in affinity on GpsB mutation (SpGpsB1-63Asp33Ala): ~ 40 fold

Molecule: N=C(N)NCCC[C@H](N)C(=O)O [L-arginine]
- displacement of pre-bound PBP peptides from GpsB (GpsB): does not displace pre-bound PBP peptides from GpsB

Molecule: CSCC[C@H](NC(=O)[C@H](CO)NC(=O)CN)C(=O)N[C@@H](C)C(=O)N[C@@H](CC(=O)O)C(=O)N[C@@H](CCC(N)=O)C(=O)N[C@@H](Cc1ccccc1)C(=O)N[C@@H](CC(N)=O)C(=O)N[C@@H](CO)C(=O)N[C@@H](CCCNC(=N)N)C(=O)N[C@@H](CCC(=O)O)C(=O)N[C@@H](C)C(=O)N[C@@H](CCCNC(=N)N)C(=O)N[C@@H](CCCNC(=N)N)C(=O)N[C@@H](CCCCN)C(=O)N[C@@H](C)C(=O)N[C@@H](CC(N)=O)C(=O)N[C@@H](CO)C(=O)N[C@@H](CCCCN)C(=O)N[C@@H](CO)C(=O)N[C@@H](CO)C(=O)N1CCC[C@H]1C(=O)N[C@@H](CO)C(=O)N1CCC[C@H]1C(=O)N[C@@H](CCCCN)C(=O)N[C@@H](CCCCN)C(=O)NCC(=O)N[C@@H](CCCCN)C(=O)N[C@@H](CCCCN)C(=O)N[C@@H](CCCNC(=N)N)C(=O)N[C@@H](CCCCN)C(=O)N[C@@H](CCCCN)C(=O)N[C@@H](CSC1CC(=O)N(c2ccc3c(c2)C(=O)OC32c3ccc(O)cc3Oc3cc(O)ccc32)C1=O)C(=O)NCC(=O)O (stereo partly drawn) [Fluorescein-BsPBP11-32] (H-GSMADQFNSREARRKANSKSSPSPKKGKKRKKC(Fluorescein(5-Mal))G-OH; N-terminus and C-terminus assumed)
- binding to BsGpsB1-68 (in words) (BsGpsB1-68 [1]; listed as BsPBP1_1-32 peptide labelled with fluorescein at position 31): the measured affinity was the same as if the fluorophore was at position 16
- binding to BsGpsB1-68 (in words) (BsGpsB1-68 [1]; listed as peptide labelled at the C-terminus with fluorescein): same affinity as a peptide labelled
- affinity of residue-31-labelled peptide (in words) (BsGpsB1-68 [2]): same affinity

B1: BsYpbE130-240^Ser132Cys: disulphide cross-linked dimeric form of BsYpbE130-240 (protein, UniProt P50731 130-240, looked up, variant S132C)
chain: EDCKPKEQTAADKKQTAVAEKEDSPNKEEATAAAASSSQSTVQQQEQPAEPVQNVPNRVVKHTVQKKETLYRISMKYYKSRTGEEKIRAYNHLNGNDVYTGQVLDIPLMDE
modifications: disulphide-linked dimer
- binding to peptidoglycan [3]: enhanced considerably relative to the monomeric, cysteine-free version

B2: BsPBP1: B. subtilis class A PBP1 (protein)
chain: MSDQFNSREARRKANSKSSPSPKKGKKRKKGGLFKKTLFTLLILFVLGVVGGAVTFAVMVSDAPSLDESKLKTPYSSTIYDKNGKEIAEVGAEKRTYVSIDEIPDVVKEAFIATEDARFYEHHGIDPVRIGGALVANFKDGFGAEGGSTITQQVVKNSLLSHQKTLKRKVQEVWLSIQLERNYSKDEILEMYLNRIYFSPRAYGIGKAAEEFFGVTDLSKLTVEQAATLAGMPQSPTAYNPVKNPDKAEKRRNIVLSLMKKQGFISDSQYNKAKKVAVKDEGVVSQKEYEKASTNKYSAFVEEVMKEIDEKSDVDPSADGLKIYTTLDTKAQDKLDELMDGDTVGFTEGMQGGVTLLDTKNGEVRAIGAGRNQPVGGFNYATQTKAQPGSTIKPILDYGPVIENKKWSTYEQIDDSAYTYSNGKPIRDWDRKYLGPISMRYALAQSRNIPALKAFQAVGKDTAVDFANGLGLGLTKDNVTEAYSIGGFGGNDGVSPLTMAGAYSAFGNNGTYNEPHFVKSIEFNDGTKLDLTPKSKSAMSDYTAFMITDMLKTAVKTGTGQLAQVPGVEVAGKTGTTNFDDNEVKRYNIASGGARDSWFVGYTPQYTAAVWTGMGENEAGKKSLSAEEQKVAKRIFAQLIADVDDGSGSFEKPDSVVEATVEKGSNPAKLAGPNTPSDKKLTEYFVKGTAPSTVSKTYEKEEKEETAKLSGLNVKYDKDNQSLTLSWNYDGDATFAVKQSVDGGSYSEIQNSSAKEAVISGVQPGSVYKFEVTAVSDDGKSTASTSYEVPKAEDDEDKKDQQQTDDEKQDDEKTQDDTQTDDSQKDDGQTDQDQTDDSTNDQDKKQDNTNTNPSDNNNQDQSNDNDNDNSNNQDTSDGDSNSGKNDSTGSDTNKNKTDTSNKTQTNSSSIEKTN
modifications: left off: His6, end not stated, cleaved
notes: B. subtilis class A PBP1
- BACTH interaction with BsYrrS (BsYrrS): interacted

B3: SpPBP1a: S. pneumoniae class A PBP1a (protein)
chain: MNKPTILRLIKYLSISFLSLVIAAIVLGGGVFFYYVSKAPSLSESKLVATTSSKIYDNKNQLIADLGSERRVNAQANDIPTDLVKAIVSIEDHRFFDHRGIDTIRILGAFLRNLQSNSLQGGSALTQQLIKLTYFSTSTSDQTISRKAQEAWLAIQLEQKATKQEILTYYINKVYMSNGNYGMQTAAQNYYGKDLNNLSLPQLALLAGMPQAPNQYDPYSHPEAAQDRRNLVLSEMKNQGYISAEQYEKAVNTPITDGLQSLKSASNYPAYMDNYLKEVINQVEEETGYNLLTTGMDVYTNVDQEAQKHLWDIYNTDEYVAYPDDELQVASTIVDVSNGKVIAQLGARHQSSNVSFGINQAVETNRDWGSTMKPITDYAPALEYGVYESTATIVHDEPYNYPGTNTPVYNWDRGYFGNITLQYALQQSRNVPAVETLNKVGLNRAKTFLNGLGIDYPSIHYSNAISSNTTESDKKYGASSEKMAAAYAAFANGGTYYKPMYIHKVVFSDGSEKEFSNVGTRAMKETTAYMMTDMMKTVLSYGTGRNAYLAWLPQAGKTGTSNYTDEEIENHIKTSQFVAPDELFAGYTRKYSMAVWTGYSNRLTPLVGNGLTVAAKVYRSMMTYLSEGSNPEDWNIPEGLYRNGEFVFKNGARSTWSSPAPQQPPSTESSSSSSDSSTSQSSSTTPSTNNSTTTNPNNNTQQSNTTPDQQNQNPQPAQP
modifications: left off: T25 or T18 fragment of adenylate cyclase (vectors pKT25, pUT18C), N-terminal, kept
notes: S. pneumoniae class A PBP1a
- BACTH interaction with SpGpsB (SpGpsB): interacted
